Experimental data as given in US20240368181A1, “QUINOXALINE DERIVATIVES AND USES THEREOF” (Black Diamond Therapeutics, Inc., priority 2021, published 2024).

Assays:
Type in all cases: cell-based
[1] = system: UM-UC-14 (FGFR3-S249C) cells; assay: cell proliferation assay (CellTiterGlo), UM-UC-14 cells; conditions: UMUC14, 72 h
From the text: (§1) In some embodiments, the biological assay assess the ability of the compounds to inhibit cell proliferation.
(§2) In some embodiments, cells (e.g., SNU-16 (FGFR2-amplification) cells) may be suspended and dispensed in plates. In some embodiments, cells (e.g., UM-UC-14 (FGFR3-S249C) cells) may be suspended and dispensed in plates. In some embodiments, cells (e.g., DMS-114 (FGFR1 overexpression) cells) may by suspended and dispensed in plates. In some embodiments, cells (e.g., RT-112 (FGFR3-Tacc3 fusion) cells) may be suspended and dispensed in plates. In some embodiments, to determine the effect of the compounds of the present disclosure on cell proliferation, cells (e.g., SNU-16, UM-UC-14, DMS-114 and […] cells) may be incubated in the presence of vehicle control (e.g., DMSO) or a compound of the present disclosure at varying concentrations and the inhibition of cell growth may be determined by luminescent quantification (e.g., of intracellular ATP content using CellTiterGlo), according to the manufacturers protocol. In some embodiments, to determine the IC50 values, the vehicle-treated cells were normalized as viable cells and the growth was analyzed using a software (e.g., the CDD Vault software (Collaborative Drug Discovery, Burlingame, CA)).

[2] = system: DMS-114 (FGFR1 overexpression) cells; assay: cell proliferation assay (CellTiterGlo), DMS-114 cells; conditions: Homo sapiens, DMS-114, 72 h
From the text: as §1, §2

[3] = system: RT-112 (FGFR3-Tacc3 fusion) cells; assay: cell proliferation assay (CellTiterGlo), RT-112 cells; conditions: Homo sapiens, RT-112, RT112 cells, 72 hours
From the text: as §1, §2

[4] = system: SNU-16 (FGFR2-amplification) cells; assay: cell proliferation assay (CellTiterGlo), SNU-16 cells; conditions: Homo sapiens, 72 hours
From the text: as §1, §2

SMILES | IC50 [1] | IC50 [2] | IC50 [3] | IC50 [4]
Cc1nc2ccc(Oc3ccc4ncc(-c5cnn(CC6(O)CC6)c5)nc4c3C3CCOC3)c(F)c2[nH]1 (stereo not shown) [Compound 70] | 20 to 100 nM | 20 to 100 nM | 20 to 100 nM | –
Cc1nc2ccc(Oc3ccc4ncc(-c5cnn(CC6CC(F)(F)C6)c5)nc4c3C3=CCOC3(C)C)cc2[nH]1 [Compound 71] | 20 to 100 nM | 100 to 400 nM | 100 to 400 nM | –
Cc1nc2ccc(Oc3ccc4ncc(-c5cnn(CC6CC(F)(F)C6)c5)nc4c3C3CCOC3)c(F)c2[nH]1 (stereo not shown) [Compound 72] | 20 to 100 nM | 20 to 100 nM | < 20 nM | –
Cc1nc2ccc(Oc3ccc4ncc(-c5cnn(C6CC7(C6)CC(F)(F)C7)c5)nc4c3Cl)cc2[nH]1 [Compound 101] | 100 to 400 nM | ≥ 400 nM | 100 to 400 nM | –
Cc1nc2ccc(Oc3ccc4ncc(-c5cnn(CC6(O)CC(O)C6)c5)nc4c3Cl)c(F)c2[nH]1 (stereo not shown) [Compound 102] | < 20 nM | 20 to 100 nM | < 20 nM | –
Cc1nc2ccc(Oc3ccc4ncc(-c5cnn(CC6(O)CC6)c5)nc4c3-n3ccnc3)c(F)c2[nH]1 [Compound 103] | 100 to 400 nM | ≥ 400 nM | 100 to 400 nM | –
Cc1nc2ccc(Oc3ccc4ncc(-c5cnn([C@@H](C)C6CCC(F)(F)CC6)c5)nc4c3Cl)cc2[nH]1 [Compound 104] | 20 to 100 nM | ≥ 400 nM | 20 to 100 nM | –
Cc1nc2ccc(Oc3ccc4ncc(-c5cnn([C@H](C)C6CCC(F)(F)CC6)c5)nc4c3Cl)cc2[nH]1 [Compound 105] | 20 to 100 nM | ≥ 400 nM | 20 to 100 nM | –
COC1CCN(C(=O)Cn2cc(-c3cnc4ccc(Oc5ccc6nc(C)[nH]c6c5)c(Cl)c4n3)cn2)CC1 [Compound 113] | 20 to 100 nM | ≥ 400 nM | 20 to 100 nM | –
CC(=O)N1CCN(C(=O)Cn2cc(-c3cnc4ccc(Oc5ccc6nc(C)[nH]c6c5)c(Cl)c4n3)cn2)CC1 [Compound 114] | ≥ 400 nM | ≥ 400 nM | 100 to 400 nM | –
Cc1nc2ccc(Oc3ccc4ncc(-c5cnn(CC6CCS(=O)(=O)CC6)c5)nc4c3S(C)(=O)=O)cc2[nH]1 [Compound 116] | 100 to 400 nM | ≥ 400 nM | ≥ 400 nM | –
Cc1nc2ccc(Oc3ccc4ncc(-c5cnn(CC6CC(F)(F)C6)c5)nc4c3N3CCCC3=O)cc2[nH]1 [Compound 117] | ≥ 400 nM | ≥ 400 nM | ≥ 400 nM | –
Cc1nc2ccc(Oc3ccc4ncc(-c5cnn(C[C@H](C)O)c5)nc4c3Cl)c(F)c2[nH]1 [Compound 118] | < 20 nM | 100 to 400 nM | < 20 nM | –
Cc1nc2ccc(Oc3ccc4ncc(-c5cnn(CC6CC(F)(F)C6)c5)nc4c3NC(=O)CCCCl)cc2[nH]1 [Compound 120] | 100 to 400 nM | ≥ 400 nM | 100 to 400 nM | –
Cc1nc2ccc(Oc3ccc4ncc(-c5cnn([C@@H](C)CO)c5)nc4c3Cl)cc2[nH]1 [Compound 125] | 20 to 100 nM | ≥ 400 nM | 20 to 100 nM | –
Cc1nc2ccc(Oc3ccc4ncc(-c5cnn(CC6(O)CC6)c5)nc4c3I)cc2[nH]1 [Compound 129] | 20 to 100 nM | ≥ 400 nM | 20 to 100 nM | –
Cc1nc2ccc(Oc3ccc4ncc(-c5cnn(C[C@@H](C)O)c5)nc4c3Cl)cc2[nH]1 [Compound 132] | – | – | 20 to 100 nM | 20 to 100 nM
Cc1nc2ccc(Oc3ccc4ncc(-c5cnn(CC6CC(F)(F)C6)c5)nc4c3-n3c(C)ccc3C)cc2[nH]1 [Compound 133] | – | – | 100 to 400 nM | ≥ 400 nM
Cc1nc2ccc(Oc3ccc4ncc(-c5cnn(CC6CC(F)(F)C6)c5)nc4c3C3CCOC3)cc2[nH]1 (stereo not shown) [Compound 134] | – | – | 20 to 100 nM | 20 to 100 nM
Cc1nc2ccc(Oc3ccc4ncc(-c5cnn(C6CCN(C)C7(CC7)C6)c5)nc4c3Cl)c(F)c2[nH]1 (stereo not shown) [Compound 135] | – | – | < 20 nM | < 20 nM
Cc1nc2ccc(Oc3ccc4ncc(-c5cnn(C(C)(C)CO)c5)nc4c3Cl)c(F)c2[nH]1 [Compound 142] | < 20 nM | 100 to 400 nM | < 20 nM | –
Cc1nc2ccc(Oc3ccc4ncc(-c5cnn(CC(=O)N6CCOCC6)c5)nc4c3Cl)c(F)c2[nH]1 [Compound 155] | < 20 nM | 20 to 100 nM | – | –
Cc1nc2ccc(Oc3ccc4ncc(-c5cnn(C6CC(=O)C6)c5)nc4c3Cl)c(F)c2[nH]1 [Compound 156] | < 20 nM | 20 to 100 nM | – | –
Cc1nc2cc(Oc3ccc4ncc(-c5cnn(CC6CC(F)(F)C6)c5)nc4c3C(F)F)ccc2[nH]1 [Compound 157] | 20 to 100 nM | 100 to 400 nM | – | –
Cc1nc2cc(Oc3ccc4ncc(-c5cnn(CC6CC(F)(F)C6)c5)nc4c3C=O)ccc2[nH]1 [Compound 158] | ≥ 400 nM | ≥ 400 nM | – | –

SMILES | IC50 [1] | IC50 [2] | IC50 [3] | IC50 [4]
Cc1nc2ccc(Oc3ccc4ncc(-c5cnn(CC6CC(F)(F)C6)c5)nc4c3N)cc2[nH]1 [Compound 159] | ≥ 400 nM | ≥ 400 nM | – | –
Cc1nc2ccc(Oc3ccc4ncc(-c5cnn(C(C)(C)C6CC(O)C6)c5)nc4c3Cl)cc2[nH]1 (stereo not shown) [Compound 160] | 20 to 100 nM | 100 to 400 nM | – | –
Cc1nc2ccc(Oc3ccc4ncc(-c5cnn(C6CC7(CC(O)C7)C6)c5)nc4c3Cl)cc2[nH]1 (stereo not shown) [Compound 161] | 20 to 100 nM | ≥ 400 nM | – | –
Cc1nc2ccc(Oc3ccc4ncc(-c5cnn(CC6(O)CC6)c5)nc4c3Cl)c(F)c2[nH]1 [Compound 162] | 20 to 100 nM | 20 to 100 nM | – | –
Cc1nc2ccc(Oc3ccc4ncc(-c5cnn(C6CCN(C)C7(CC7)C6)c5)nc4c3Cl)cc2[nH]1 (stereo not shown) [Compound 163] | 20 to 100 nM | 100 to 400 nM | – | –
Cc1nc2ccc(Oc3ccc4ncc(-c5cnn(CC6(O)CC6)c5)nc4c3C3=CCCC3)cc2[nH]1 [Compound 164] | 20 to 100 nM | 20 to 100 nM | – | –
Cc1nc2ccc(Oc3ccc4ncc(-c5cnn(C6CC7(CC(=O)C7)C6)c5)nc4c3Cl)cc2[nH]1 [Compound 165] | 20 to 100 nM | ≥ 400 nM | – | –
Cc1nc2ccc(Oc3ccc4ncc(-c5cnn(C[C@H]6C[C@](C)(O)C6)c5)nc4c3Cl)c(F)c2[nH]1 [Compound 166] | 20 to 100 nM | 100 to 400 nM | – | –
Cc1nc2ccc(Oc3ccc4ncc(-c5cnn(C[C@H]6C[C@@](C)(O)C6)c5)nc4c3Cl)c(F)c2[nH]1 [Compound 167] | < 20 nM | 20 to 100 nM | – | –
Cc1nc2ccc(Oc3ccc4ncc(-c5cnn([C@H]6C[C@@](C)(O)C6)c5)nc4c3Cl)cc2[nH]1 [Compound 168] | 20 to 100 nM | ≥ 400 nM | – | –
Cc1nc2ncc(Oc3ccc4ncc(-c5cnn(C6CCC(F)(F)CC6)c5)nc4c3Cl)cc2[nH]1 [Compound 169] | ≥ 400 nM | ≥ 400 nM | – | –
Cc1nc2ccc(Oc3ccc4ncc(-c5cnn(C6(C)CC=C(F)CC6)c5)nc4c3Cl)cc2[nH]1 (stereo not shown) [Compound 170] | 100 to 400 nM | ≥ 400 nM | – | –
Cc1nc2ccc(Oc3ccc4ncc(-c5cnn(C6(C)CCC(F)(F)CC6)c5)nc4c3Cl)cc2[nH]1 [Compound 171] | 100 to 400 nM | ≥ 400 nM | – | –
Cc1nc2ccc(Oc3ccc4ncc(-c5cnn([C@H]6C[C@H](O)C6)c5)nc4c3Cl)cc2[nH]1 [Compound 172] | 100 to 400 nM | ≥ 400 nM | – | –
Cc1nc2ccc(Oc3ccc4ncc(-c5cnn([C@H]6C[C@@H](O)C6)c5)nc4c3Cl)cc2[nH]1 [Compound 173] | 20 to 100 nM | 100 to 400 nM | – | –
Cc1nc2ccc(Oc3ccc4ncc(-c5cnn(CC(=O)N6CCC(F)(F)C6)c5)nc4c3Cl)c(F)c2[nH]1 [Compound 174] | < 20 nM | 100 to 400 nM | – | < 20 nM
Cc1nc2ccc(Oc3ccc4ncc(-c5cnn([C@H]6C[C@](C)(O)C6)c5)nc4c3Cl)cc2[nH]1 [Compound 175] | 20 to 100 nM | 100 to 400 nM | – | < 20 nM
Cc1nc2ccc(Oc3ccc4ncc(-c5cnn(C6CCNC7(CC7)C6)c5)nc4c3Cl)cc2[nH]1 (stereo not shown) [Compound 176] | < 20 nM | 100 to 400 nM | – | 100 to 400 nM
Cc1nc2ccc(Oc3ccc4ncc(-c5cnn(C6CCC(F)(F)CC6)c5)nc4c3Cl)nc2[nH]1 [Compound 177] | ≥ 400 nM | ≥ 400 nM | – | ≥ 400 nM
Cc1nc2ccc(Oc3ccc4ncc(-c5cnn([C@H]6C[C@H](C(F)(F)F)C6)c5)nc4c3Cl)cc2[nH]1 [Compound 178] | ≥ 400 nM | ≥ 400 nM | – | 20 to 100 nM
Cc1nc2ccc(Oc3ccc4ncc(-c5cnn(C[C@H]6C[C@@](C)(O)C6)c5)nc4c3Cl)cc2[nH]1 [Compound 180] | 20 to 100 nM | ≥ 400 nM | – | 20 to 100 nM
Cc1nc2ccc(Oc3ccc4ncc(-c5cnn(C[C@H]6C[C@](C)(O)C6)c5)nc4c3Cl)cc2[nH]1 [Compound 181] | 20 to 100 nM | ≥ 400 nM | – | < 20 nM
Cc1nc2ccc(Oc3ccc4ncc(-c5cnn(C(C)C6CC(F)(F)C6)c5)nc4c3Cl)cc2[nH]1 (stereo not shown) [Compound 182] | 20 to 100 nM | ≥ 400 nM | – | 20 to 100 nM
Cc1nc2ccc(Oc3ccc4ncc(-c5cnn(C6CCN(C(=O)N(C)C)CC6)c5)nc4c3Cl)cc2[nH]1 [Compound 261] | < 20 nM | 20 to 100 nM | – | < 20 nM
